# Test system: E. coli ATCC 25922
# Assay: Digital AST by LVSi single-cell division tracking, pure E. coli samples
# Type: cell-based
# Conditions: for bacterial cell growth (normalized cumulative division events) versus control: different batches of E. coli; for average counting number of cell spots during 5-min video: 37° C., stationary phase cells
# Description: E. coli ATCC 25922 were purchased from American Type Culture Collection (ATCC) and stored at −80° C. in 5% glycerol. Antibiotics, including ciprofloxacin and ampicillin were purchased from Sigma-Aldrich. The antibiotic powders were stored in the dark at 2 to 8° C. Frozen E. coli strains were thawed, and 50 μL of the cells were cultured in 5 mL of Luria-Bertani (LB) medium (per liter: 10 g peptone 140, 5 g yeast extract, and 5 g sodium chloride) at 37° C. and 150 rpm for 15 h. Then the overnight cultured E. coli was inoculated into LB broth directly. After dilution to appropriate cell concentrations, antibiotics were added to the E. coli suspensions.
# The dual channel LVSi system depicted in FIG. 1A was used, with two 800 mW, 780 nm infrared (IR) LEDs (M780LP1, Thorlabs, Inc., USA), each with collimating and focusing lenses and a central blocking aperture to focus a ring-shaped illumination through the sample or the reference cuvettes. Wide-view and deep field depth scattering images were recorded by two CMOS cameras (BFS-U3-16S2M-CS, Point Grey Research Inc., Canada) at 10 fps through two 2×variable zoom lens (NAVITAR 12×, Navitar, USA), for the sample and reference cuvettes, respectively. The image volume was determined by the viewing size and focal depth of the optics. For these experiments, the viewing area of 2.5 mm×1.9 mm×1.0 mm was equivalent to 4.8 μL at 2.0× magnifying power. The imaging system was enclosed in a thermally isolated housing with a controlled temperature (37° C.).
# Individual cells recorded by LVSi are resolved as bright spots. Before division tracking, each spot was detected with a Laplacian of Gaussian (LoG) filter with defined radius and threshold. Then, the spots from adjacent time frames were connected with a Karman filter for directional linking. So each bright spot became a single-cell trajectory. To track the division events, the newly appeared cell trajectories (those from the image edges excluded) were first filtered out as the child trajectory candidates, and for each child trajectory candidate, the nearby old trajectories (appeared before the child trajectory candidate) were checked. If there was a close-by old trajectory split at the start time of the child trajectory candidate, a potential division event was tracked. To filter out the merge/crossing induced splitting, the spots merging events were also checked and were filtered out from the potential division events. Finally, an intensity filter was used to evaluate the remaining division events, ensuring the parent cell intensity is about the summation of the two divided child ones, and the two child ones are similar in size.
# To validate that the tracked division events were due to real cell growth, rather than an artifact of the particle merging or crossing, a division over-counting calibration test was designed. To rule out the real division events, the E. coli cells were heated at ˜65° C. for 15 min. Then, each 5-min video of the heated E. coli cells with different concentrations (2.0×10^4˜2.0×10^5 CFU/mL, corresponding to 100-1000 spots in image view) were analyzed for single-cell division tracking. Each concentration test was repeated three times. Then, the division over-counting calibration curve was extracted from the tracking results. The division over-counting is less an issue when the cell number is below 500, corresponding to the bacterial concentration of about 1.0×10^5 CFU/mL. When the cell number is above 500, some miss-counting of division events occurred. To rule out the cell density induced division over-counting, the final division events in all clinical samples were calibrated by subtracting the cell density associated over counted division events.
# The statistical error of the division tracking was estimated by the mentioned division over-counting calibration. […]
Compound,"cumulative division events growth curve compared with control (2 μg/mL ciprofloxacin, 60 min (FIG. 4F))","bacterial cell growth (normalized cumulative division events) versus control (2 μg/mL ciprofloxacin, 60 min (FIG. 5A, 5B))","average counting number of cell spots during 5-min video (2 μg/mL ciprofloxacin, snapshot at 5 min)","average counting number of cell spots during 5-min video (2 μg/mL ciprofloxacin, snapshot at 30 min)","average counting number of cell spots during 5-min video (2 μg/mL ciprofloxacin, snapshot at 60 min)","bacterial cell growth (normalized cumulative division events) versus control (16 μg/mL ampicillin, 60 min (FIG. 5C, 5D))"
O=C(O)c1cn(C2CC2)c2cc(N3CCNCC3)c(F)cc2c1=O [ciprofloxacin],no obvious increases in the growth curve,clear inhibition in bacterial cell growth,118±8,114±5,106±4,–
CC1(C)S[C@@H]2[C@H](NC(=O)[C@H](N)c3ccccc3)C(=O)N2[C@H]1C(=O)O [ampicillin],–,–,–,–,–,clear inhibition in bacterial cell growth

# Reference: US20230230249A1, “DIGITAL ANTIMICROBIAL SUSCEPTIBILITY TESTING” (ARIZONA BOARD OF REGENTS ON BEHALF OF ARIZONA STATE …, priority 2020, published 2023)
